Data published in US7338809B2, “Method for assaying whole blood” (Mitsubishi Kagaku Iatron, Inc., priority 2001, dated 2008).
Entries after “also recorded” stand apart in the source; their conditions may differ.

Legend:
whole blood [1] = experiment: Example 5: visual inspection of reaction system using fresh whole blood (hemolysis, adhesion, aggregation)
Method: In emergent tests, in particular, it is desirable to perform an assay immediately after blood collection, and erythrocytes in whole blood may be gradually hemolyzed during storage, possibly affecting the measurement. Therefore, examination was performed by using fresh blood immediately after blood collection.

whole blood [2] = experiment: Example 3: visual inspection of reaction system with whole blood treatment solutions (hemolysis, adhesion and aggregation of magnetic particles)
Method: Examination was conducted on the assumption that a detergent was added to the reaction system by adding the detergent to a whole blood treatment solution beforehand. The whole blood treatment solutions were prepared by dissolving various detergents in 0.1 M Tris buffer (pH 8.0) containing 1% BSA and 0.15 M NaCl, and it was examined which detergent was suitable for the measurement method of the present invention.
Blood was collected by using an EDTA blood collection tube. Then, HBsAg was added at 1 U/ml to each of the whole blood stored at 4° C. for 3 days and plasma obtained from the whole blood by centrifugation, and a recovery test for HBsAg was performed using the luminescence intensity obtained in the measurement using plasma, which was taken as 100%.
The assay was performed in the same manner as in Example 2. Whole blood and each of the various whole blood treatment solutions were mixed at a ratio of 9:1, plasma was mixed with purified water at a ratio of 9:1, and HBsAg was immediately measured. Further, whole blood was mixed with the aforementioned buffer (0.1 M Tris buffer (pH 8.0) containing 1% BSA and 0.15 M NaCl) without adding a detergent instead of a whole blood treatment solution, and HBsAg was measured in the same manner. Presence or absence of hemolysis in the reaction system, non-specific adhesion of magnetic particles on the reaction vessel (made of polypropylene) and non-specific aggregation of magnetic particles during reaction were confirmed by visual inspection.

whole blood [3] = experiment: Example 4: visual inspection of reaction system, types and concentrations of detergents (hemolysis, adhesion, aggregation); conditions: heparin whole blood stored overnight at 4° C.
Method: Blood was collected by using a blood collection tube treated with heparin as an anticoagulant. […] Each detergent was added at a concentration of 0.01, 0.1, 0.5, 1 and 10% as a final concentration after the mixing with whole blood. Presence or absence of hemolysis in the reaction system, non-specific adhesion of magnetic particles on the reaction vessel (made of polypropylene) and non-specific aggregation of magnetic particles during reaction were confirmed by visual inspection for each detergent in each reaction system, and recovery ratio with respect to the added amount was determined.

[4] = detergent 1% upon mixing of whole blood, EDTA whole blood stored at 4° C. for 3 days, visual inspection

**Q.** With `O=S(=O)([O-])CCC[n+]1ccccc1` as the compound, how does the Hemolysis (whole blood [1]) read?
**A.** Absent

**Q.** And the Hemolysis (whole blood [2])?
**A.** Absent

**Q.** For `C[C@H](CCC(=O)NCCC[N+](C)(C)CCCS(=O)(=O)[O-])[C@H]1CC[C@H]2[C@@H]3[C@H](O)C[C@@H]4C[C@H](O)CC[C@]4(C)[C@H]3C[C@H](O)[C@]12C` [CHAPS, 3-{(3-Cholamidopropyl)dimethylammonio}-1-propanesulfonate], which Hemolysis (whole blood [2]; [4]) is on record?
**A.** Present

**Q.** “Polyoxyethylene octyl phenyl ether [Triton X-100]” was tested. Which Hemolysis (whole blood [2]; [4]) did it give?
**A.** Present

**Q.** And the Hemolysis (whole blood [3]; detergent 0.01% upon mixing of whole blood)?
**A.** Absent

**Q.** What about the Hemolysis (whole blood [3]; detergent 0.1% upon mixing of whole blood) of the same compound?
**A.** Absent

**Q.** And the Hemolysis (whole blood [3]; detergent 0.5% upon mixing of whole blood)?
**A.** hemolysis was observed; also recorded: Present

**Q.** What about the Hemolysis (whole blood [3]; detergent 1% upon mixing of whole blood) of the same compound?
**A.** Present

**Q.** What about the Hemolysis (whole blood [3]; detergent 10% upon mixing of whole blood) of the same compound?
**A.** Present

**Q.** Which Hemolysis (whole blood [2]; [4]) does the source give for Polyoxyethylene stearyl ether [Brij 78] here?
**A.** Present

**Q.** How did the Hemolysis (whole blood [2]) turn out when Saponin was run?
**A.** Present
